From ChEMBL document CHEMBL3085777, “Improved synthesis and in vitro evaluation of the cytotoxic profile of oxysterols oxidized at C4 (4α- and 4β-hydroxycholesterol) and C7 (7-ketocholesterol, 7α- and 7β-hydroxycholesterol) on cells of the central nervous system” (Eur J Med Chem, 2013)

Assays:
C6 [1] = test: Cytostatic activity against rat C6 cells assessed as growth inhibition after 24 hrs by trypan blue-based cell counting method; assay type: functional; settings: C6, 24 h
C6 [2] = test: Cytostatic activity against rat C6 cells assessed as cell viability after 24 hrs by trypan blue-based cell counting method; assay type: functional; settings: C6, 24 h, read-out: LD50 (the source's name)
[3] = Cytostatic activity against mouse 158N cells assessed as growth inhibition after 24 hrs by trypan blue-based cell counting method
[4] = Cytostatic activity against mouse 158N cells assessed as cell viability after 24 hrs by trypan blue-based cell counting method; settings: read-out: LD50
[5] = Growth inhibition of BALB/cJRj mouse astrocytes/oligodendrocytes at 50 uM after 24 hrs by trypan blue-based cell counting method
[6] = Cytotoxicity against BALB/cJRj mouse astrocytes/oligodendrocytes assessed as cell viability at 50 uM after 24 hrs by trypan blue-based cell counting method; settings: for Activity: 24 h, 50 µM; for viability at 24 h, 50 µM: BALB/cJRj, astrocytes/oligodendrocytes, read-out: Activity
[7] = Growth inhibition of human SK-N-BE cells after 24 hrs by trypan blue-based cell counting method; assay type: functional
[8] = Cytotoxicity against human SK-N-BE cells assessed as cell viability after 24 hrs by trypan blue-based cell counting method; assay type: functional; settings: read-out: LD50 (the source's name)
C6 [9] = test: Growth inhibition of rat C6 cells after 24 hrs by trypan blue-based cell counting method; assay type: functional; settings: C6, 24 h
C6 [10] = test: Cytotoxicity against rat C6 cells assessed as cell viability after 24 hrs by trypan blue-based cell counting method; assay type: functional; settings: C6, 24 h, read-out: LD50 (the source's name)
[11] = Growth inhibition of mouse 158N cells after 24 hrs by trypan blue-based cell counting method
[12] = Cytotoxicity against mouse 158N cells assessed as cell viability after 24 hrs by trypan blue-based cell counting method; settings: read-out: LD50

| Compound | IC50 (C6 [1]) [µM] | CC50 (C6 [2]) [µM] | IC50 [3] [µM] | CC50 at 24 h [4] [µM] | Activity [5] | Activity [6] | IC50 [7] [µM] | CC50 [8] [µM] | IC50 (C6 [9]) [µM] | CC50 (C6 [10]) [µM] | IC50 [11] [µM] | CC50 at 24 h [12] [µM] | viability at 24 h, 50 µM [6] [%] |
| --- | --- | --- | --- | --- | --- | --- | --- | --- | --- | --- | --- | --- | --- |
| CC(C)CCC[C@@H](C)[C@H]1CC[C@H]2[C@@H]3CC=C4[C@H](O)[C@@H](O)CC[C@]4(C)[C@H]3CC[C@]12C | ≥ 160 | > 160 | 40 | > 160 | Non-toxic | Non-toxic | > 160 | > 160 | – | – | – | – | – |
| CC(C)CCC[C@@H](C)[C@H]1CC[C@H]2[C@@H]3[C@H](O)C=C4C[C@@H](O)CC[C@]4(C)[C@H]3CC[C@]12C | – | – | – | – | Non-toxic | Non-toxic | ≥ 160 | > 160 | 40 | ≥ 160 | 15 | 60 | – |
| CC(C)CCC[C@@H](C)[C@H]1CC[C@H]2[C@@H]3CC=C4[C@@H](O)[C@@H](O)CC[C@]4(C)[C@H]3CC[C@]12C | ≥ 160 | > 160 | 30 | > 160 | Non-toxic | Non-toxic | > 160 | > 160 | – | – | – | – | – |
| CC(C)CCC[C@@H](C)[C@H]1CC[C@H]2[C@@H]3[C@@H](O)C=C4C[C@@H](O)CC[C@]4(C)[C@H]3CC[C@]12C | – | – | – | – | Toxic | – | 20 | 55 | 15 | 60 | 15 | 15 | 19.9 |
| CC(C)CCC[C@@H](C)[C@H]1CC[C@H]2[C@@H]3C(=O)C=C4C[C@@H](O)CC[C@]4(C)[C@H]3CC[C@]12C [7-OXOCHOLESTEROL] | – | – | – | – | Toxic | – | 20 | 60 | 20 | 60 | 10 | 30 | 70.5 |
